# Test results published in ChEMBL document CHEMBL5532686, “Azole-based compounds as potential anti-Acanthamoeba agents” (RSC Med Chem, 2024).
# The source made the active and inactive calls. The calls are words filed in the database; no cut-off is given here.
# Tests used:
# [1] = test system: Acanthamoeba castellanii; experiment: Anti-amoebic activity against Acanthamoeba castellanii genotype T4 (ATCC 50492) trophozoites infected in human HCT-116 cells assessed as protection against amoebae infection at 100 ug/ml amoebae pretreated with compound for 2 hrs followed by host cell infection and measured after 24 hrs by LDH assay; format: functional, organism-based; details: dose 100.0 µg/ml, time 26.0 hrs
# [2] = test system: Acanthamoeba castellanii; experiment: Anti-amoebic activity against Acanthamoeba castellanii genotype T4 (ATCC 50492) trophozoites assessed as reduction in amoebae viability at 100 ug/ml incubated for 24 hrs by trypan blue exclusion test; format: functional
# [3] = test system: Acanthamoeba castellanii; experiment: Anti-amoebic activity against Acanthamoeba castellanii genotype T4 (ATCC 50492) cysts assessed as reduction in excystation at 100 ug/ml incubated for 24 to 72 hrs by hemocytometer analysis; format: functional; details: time 24-72 hrs
# [4] = test system: Acanthamoeba castellanii; experiment: Anti-amoebic activity against Acanthamoeba castellanii genotype T4 (ATCC 50492) trophozoites assessed as reduction in encystation at 100 ug/ml incubated for 48 hrs by hemocytometer analysis; format: functional, organism-based; details: dose 100.0 µg/ml
# [5] = test system: Acanthamoeba castellanii; experiment: Anti-amoebic activity against Acanthamoeba castellanii genotype T4 (ATCC 50492) cysts assessed as reduction in excystation incubated for 24 to 72 hrs by hemocytometer analysis; format: functional; details: time 24-72 hrs
# [6] = test system: Acanthamoeba castellanii; experiment: Anti-amoebic activity against Acanthamoeba castellanii genotype T4 (ATCC 50492) trophozoites assessed as reduction in amoebae viability incubated for 24 hrs by trypan blue exclusion test; format: functional
# [7] = test system: HCT-116; experiment: Cytotoxicity against human HCT-116 cells at 5X excystation MIC50 concentration incubated for 24 hrs by LDH assay; format: toxicity, cell-based; details: hct-116, 24 h
# [8] = test system: HCT-116; experiment: Cytotoxicity against human HCT-116 cells at 100 ug/ml incubated for 24 hrs by LDH assay; format: toxicity, cell-based; details: hct-116, 24 h, at 100 µg/mL
SMILES,Activity [1],inhibition at 100 µg/mL [2],inhibition at 100 µg/mL [3],Activity [4],MIC50 [5],MIC50 [6],Activity [7],Activity [8]
CC(C)(C)c1ccc(-c2nnc(SCc3cccc(C(F)(F)F)c3)n2-c2ccccc2)cc1,inactive,17%,78%,inactive,85.5 mg/L,239 mg/L,,
CC(C)c1ccc(-c2nnc(SCc3cccc(C(F)(F)F)c3)n2-c2cccc(Br)c2)cc1,inactive,34%,77%,inactive,32 mg/L,125 mg/L,17%,
Cc1ccc(-n2c(SCc3cccc(C(F)(F)F)c3)nnc2-c2ccc(C(C)(C)C)cc2)cc1,inactive,27%,86%,inactive,19.5 mg/L,180 mg/L,,35%
CC(C)(C)c1ccc(-c2nnc(SCc3cccc(C(F)(F)F)c3)n2-c2cccc(Cl)c2)cc1,inactive,25%,78%,inactive,80.6 mg/L,144 mg/L,,35%
